How the values were obtained:
rabbit aortic valves = assay: 1% cholesterol diet in rabbits, aortic valve immunostaining (PCNA, osteopontin) and cholesterol levels; assay type: in vivo, New Zealand rabbits; conditions: 1% cholesterol diet for 12 weeks
Protocol: In another experiment, osteopontin expression was evaluated. Osteopontin is a non-collagenous bone matrix protein found to be present in the hypercholesterolemic aortic valves. New Zealand rabbits (n=8) were fed with a 1% cholesterol diet for 12 weeks. Eight control animals were fed a normal chow diet. Aortic valves were cut and foam cells were identified by immunostaining for macrophage antibody. Cell proliferation was assessed by immunostaining for proliferating nuclear antigen (PCNA), and osteopontin (OP) for calcification. Transmission electron microscopy immunogold labeling confirmed osteopontin expression.

[1] = system: cultured porcine aortic valve subendothelial cells; assay: 3H thymidine incorporation assay, serotonin-induced proliferation; assay type: cell-based
Protocol: To examine the direct proliferative effects of serotonin, cultured porcine aortic valve subendothelial cells were treated with 1 μM, 100 nM, and 10 nM of serotonin and then tested using a ^3H thymidine incorporation assay.

nitric oxide synthase = assay: Nitric oxide synthase activity in aortic valve endothelial cell lysates (3H-L-arginine to L-citrulline conversion); assay type: cell-based, pigs; conditions: valvular cells treated with pravastatin
Protocol: To assess nitric oxide synthase activity, the aortic valve endothelial cell lysates were evaluated using an NADPH disphorase reaction. Briefly, each lysate was incubated for 30 minutes in a NOS assay buffer containing ^3H-L-arginine, NADPH (100 mM), tetrahydrobiopterin (1 mM), calmodulin ([…]), and CaCl2 (25 mM). The reaction was quenched with ice cold stop buffer (2 mM EDTA, 20 mM Hepes, pH 5.5). The mixture was passed over a Dowex AG50WX-8 Na form resin and washed with one mL stop buffer. Nitric oxide synthase activity was calculated to be the amount of L-arginine converted to L-citrulline that was inhibited by 1-NAME. A scintillation counter was used to determine the amount of radioactivity.

## CC(C)CCC[C@@H](C)[C@H]1CC[C@H]2[C@@H]3CC=C4C[C@@H](O)CC[C@]4(C)[C@H]3CC[C@]12C [cholesterol]
Rabbit aortic valves
  number of proliferating cells (PCNA) in aortic valves compared to controls: thousand-fold increase
  osteopontin expression in the atherosclerotic lesion of the aortic valves: increased osteopontin expression

## CSc1ccc2c(c1)C(N1CCN(C)CC1)Cc1ccccc1S2 (centres unmarked) [methiothepin]
[1]; methiothepin 7 nM with serotonin
  effect on serotonin-induced proliferation: inhibited the serotonin-induced proliferation

## CC[C@H](C)C(=O)O[C@H]1C[C@H](O)C=C2C=C[C@H](C)[C@H](CC[C@@H](O)C[C@@H](O)CC(=O)O)[C@H]21 [Pravastatin, pravastatin]
Nitric oxide synthase
  nitric oxide synthase activity versus cells treated with serum-free media alone: about 100 fold

## NCCc1c[nH]c2ccc(O)cc12 [serotonin]
[1]; serotonin 1 μM, 100 nM and 10 nM, p<0.001
  increase in cell proliferation compared to untreated cells: 33 fold

Source: patent publication US20060040885A1, “Bioprosthetic heart valves” (Mayo Foundation for Medical Education and Research, a …, priority 1999, published 2006)
